Measured values reported in patent US11999747B2, “Furoquinolinediones as inhibitors of TDP2” (THE UNITED STATES OF AMERICA, AS REPRESENTED BY THE …, priority 2015, dated 2024).

Key:
recombinant human TDP2 = target: T1, recombinant human TDP2 (Homo sapiens, UniProt O95551); assay: Recombinant Tdp2 assay (gel-based, 18-mer ssDNA substrate); assay type: biochemical; conditions: recombinant human TDP2, 25 pM, 15 min, room temperature; read-out: REC TDP2
T1 sequence (O95551 1-362): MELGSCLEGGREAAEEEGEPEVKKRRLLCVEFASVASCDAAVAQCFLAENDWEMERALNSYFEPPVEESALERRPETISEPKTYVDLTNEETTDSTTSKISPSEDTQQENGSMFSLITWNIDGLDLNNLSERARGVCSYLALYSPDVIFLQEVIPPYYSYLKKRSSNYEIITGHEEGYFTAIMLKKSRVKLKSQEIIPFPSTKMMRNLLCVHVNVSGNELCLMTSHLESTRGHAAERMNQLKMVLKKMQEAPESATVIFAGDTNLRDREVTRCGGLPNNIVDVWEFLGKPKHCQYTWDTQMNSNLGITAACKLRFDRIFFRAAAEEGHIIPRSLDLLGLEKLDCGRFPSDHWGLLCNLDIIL
Protocol: TDP2 reactions were carried out as described previously (Example 52) with the following modifications. The 18-mer single-stranded oligonucleotide DNA substrate (α^32P-cordycepin-3′-labeled) was incubated at 1 nM with 25 pM recombinant human TDP2 in the absence or presence of inhibitor for 15 min at room temperature in a buffer containing 50 mM Tris-HCl, pH 7.5, 80 mM KCl, 5 mM MgCl2, 0.1 mM EDTA, 1 mM DTT, 40 μg/mL BSA, and 0.01% Tween 20. Reactions were terminated and treated similarly to WCE and recombinant TDP1 reactions (see Examples 52 and 53).
(§1) All compounds were prepared by the methods shown in Examples 1 to 50. Routine changes in starting materials and reaction conditions, readily apparent to those of skill in the art, were used to make the particular compounds disclosed in Table 1. […] A standard Tdp2 inhibition assay, such as the assay of Example 53, is used to determine the IC50's for the compounds. LC methods are given in the General Methods section.

human TDP2 (hTDP2) = target: T2, human TDP2 (hTDP2) (Homo sapiens, UniProt O95551); assay: Whole cell extract Tdp2 assay (DT40 TDP1-/- cells complemented with human TDP2); assay type: biochemical; conditions: whole cell extract 4 μg/mL of DT40 cells expressing hTDP2, 15 min, room temperature; read-out: WCE hTDP2
T2 construct: expressed in transfected cells; host or cells: DT40 (chicken) TDP1-/- knockout cells complemented with human TDP2; whole cell extract
T2 sequence (O95551 1-362): T1 sequence (O95551 1-362)
Protocol: DT40 knockout cells (1×10^7) for Tdp1 (TDP1−/−) complemented with human TDP2 (hTDP2) were collected, washed, and centrifuged. Cell pellets were then lysed and stored similarly to hTDP1 extracts (see above). The 18-mer single-stranded oligonucleotide was incubated at 1 nM with 4 μg/mL of whole cell extracts in the absence or presence of inhibitor for 15 min at room temperature in the WCE buffer containing 50 mM Tris HCl, pH 7.5, 80 mM KCl, 5 mM MgCl2, 2 mM EDTA, 1 mM DTT, 40 μg/mL BSA, and 0.01% Tween-20. Reactions were terminated by the addition of 1 volume of gel loading buffer [99.5% (v/v) formamide, 5 mM EDTA, 0.01% (w/v) xylene cyanol, and 0.01% (w/v) bromophenol blue]. Samples were then treated and run similarly to the hTDP1 whole cell extract (Example 51).
as §1

SMILES	IC50 (recombinant human TDP2) [µM]	IC50 (human TDP2 (hTDP2)) [µM]
O=C(Oc1ccc(OCCCN2CCOCC2)cc1)c1coc2c1C(=O)c1ncccc1C2=O [Compound 59]	37 to 111	1 to 12
Cc1oc2c(c1C(=O)Nc1ccccc1)C(=O)c1ncccc1C2=O [Compound 16]	> 111	
Cc1oc2c(c1C(=O)OC[C@H]1COC(C)(C)O1)C(=O)c1ncccc1C2=O [Compound 38]	1 to 12	1 to 12
CCOC(=O)c1c2c(n(C)c1C)C(=O)c1ncccc1C2=O [Compound 5]	> 111	
Cc1oc2c(c1C(=O)OCCCCO)C(=O)c1ncccc1C2=O [Compound 35]	12 to 37	1 to 12
CC(=O)N1CCN(c2ccc(OC(=O)c3c(C)oc4c3C(=O)c3ncccc3C4=O)cc2)CC1 [Compound 61]	37 to 111	1 to 12
CCOC(=O)c1c(C(Br)Br)oc2c1C(=O)c1ncccc1C2=O [Compound 74]	12 to 37	
COP(=O)(CCOC(=O)c1c(C)oc2c1C(=O)c1ncccc1C2=O)OC [Compound 22]	1 to 12	12 to 37
Cc1oc2c(c1C(=O)Oc1ccc3ccccc3c1)C(=O)c1ncccc1C2=O [Compound 25]	> 111	
CCOC(=O)c1noc2c1C(=O)c1ncccc1C2=O [Compound 73]	≤ 1	
CCOC(=O)c1c(CC)oc2c1C(=O)c1ncccc1C2=O [Compound 65]	37 to 111	
CCOC(=O)c1c(CN2CCN(C(C)=O)CC2)oc2c1C(=O)c1ncccc1C2=O [Compound 71]	12 to 37	
Cc1oc2c(c1C(=O)Oc1cccc(-c3cn(CCCO)nn3)c1)C(=O)c1ncccc1C2=O [Compound 34]	1 to 12	1 to 12
CCOC(=O)c1c(CC)oc2c1C(=O)c1ncccc1C2=O [Compound 66]	12 to 37	
CCOC(=O)c1c(C(C)C)oc2c1C(=O)c1ncccc1C2=O [Compound 64]	12 to 37	≤ 1
CCOC(=O)C1=C(C)C(C(=O)OCC)C2=C1C(=O)c1ncccc1C2=O (centres unmarked) [Compound 4]	> 111	

SMILES	IC50 (recombinant human TDP2) [µM]	IC50 (human TDP2 (hTDP2)) [µM]
CCOC(=O)c1c(CN2CCOCC2)oc2c1C(=O)c1ncccc1C2=O [Compound 72]	1 to 12	
CC(=O)c1c(C)oc2c1C(=O)c1cccnc1C2=O [Compound 8, 3-acetyl-2-methylfuro[3,2-g]quinoline-4,9-dione]	> 111	
CCOC(=O)c1c(-c2ccccc2)oc2c1C(=O)c1cccnc1C2=O [Compound 29, Ethyl 4,9-dioxo-2-phenyl-4,9-dihydrofuro[3,2-g]quinoline-3-carboxylate]	37 to 111	12 to 37
CCOC(=O)c1c(-c2ccccc2)oc2c1C(=O)c1ncccc1C2=O [Compound 30, Ethyl 4,9-dioxo-2-phenyl-4,9-dihydrofuro[2,3-g]quinoline-3-carboxylate]	12 to 37	12 to 37
CCOC(=O)c1c(CBr)oc2c1C(=O)c1ncccc1C2=O [Compound 63]	12 to 37	1 to 12
Cc1oc2c(c1C(=O)OCCc1cn(CCC(=O)O)nn1)C(=O)c1ncccc1C2=O [Compound 42]	12 to 37	12 to 37
CNC1=C(Cl)C(=O)c2ncccc2C1=O [Compound 6]	> 111	
CCOC(=O)c1c(C)oc2c1C(=O)c1ccccc1C2=O [Compound 3, Ethyl 2-methyl-4,9-dioxo-4,9-dihydronaphtho[2,3-b]furan-3-carboxylate]	37 to 111	
Cc1oc2c(c1C(=O)Nc1cccc(Cl)c1)C(=O)c1ncccc1C2=O [Compound 17]	> 111	
C#CCCOC(=O)c1c(C)oc2c1C(=O)c1ncccc1C2=O [Compound 43]	12 to 37	12 to 37
Cc1oc2c(c1C(=O)Oc1cccc(-c3cn(CCC(=O)O)nn3)c1)C(=O)c1ncccc1C2=O [Compound 33]	12 to 37	12 to 37
Cc1oc2c(c1C(=O)OCCc1ccccc1)C(=O)c1ncccc1C2=O [Compound 40]	37 to 111	12 to 37
Cc1oc2c(c1C(=O)OCCOCCO)C(=O)c1ncccc1C2=O [Compound 36]	12 to 37	12 to 37
Cc1oc2c(c1C(=O)Oc1ccccc1OCCCN1CCOCC1)C(=O)c1ncccc1C2=O [Compound 60]	37 to 111	1 to 12
CC(C)(C)OC(=O)Nc1ccc(OC(=O)c2coc3c2C(=O)c2ncccc2C3=O)cc1 [Compound 69]	12 to 37	

The next lines start with the values.

IC50 (recombinant human TDP2) [µM]	IC50 (human TDP2 (hTDP2)) [µM]	SMILES
12 to 37	12 to 37	Cc1oc2c(c1C(=O)Oc1ccc(Br)cc1)C(=O)c1ncccc1C2=O [Compound 31]
12 to 37	1 to 12	Cc1oc2c(c1C(=O)Oc1ccccc1)C(=O)c1ncccc1C2=O [Compound 14]
12 to 37		C=CC(=O)Nc1cccc(OC(=O)c2c(C)oc3c2C(=O)c2ncccc2C3=O)c1 [Compound 67]
12 to 37		C=CC(=O)Nc1ccc(OC(=O)c2c(C)oc3c2C(=O)c2ncccc2C3=O)cc1 [Compound 68]
1 to 12	1 to 12	Cc1oc2c(c1C(=O)Oc1ccc(Cl)cc1)C(=O)c1ncccc1C2=O [Compound 27]
37 to 111	37 to 111	CCOC(=O)c1c(C)oc2c1C(=O)c1cccnc1C2=O [Compound 1, Ethyl 2-methyl-4,9-dioxo-4,9-dihydrofuro[3,2-g]quinoline-3-carboxylate]
12 to 37	1 to 12	Cc1oc2c(c1C(=O)Oc1cccc(O)c1)C(=O)c1ncccc1C2=O [Compound 12]
12 to 37	12 to 37	Cc1oc2c(c1C(=O)Oc1ccc(S(C)(=O)=O)cc1)C(=O)c1ncccc1C2=O [Compound 44]
1 to 12	1 to 12	Cc1oc2c(c1C(=O)Oc1cccc(C#N)c1)C(=O)c1ncccc1C2=O [Compound 26]
12 to 37	1 to 12	COC(=O)c1c(C)oc2c1C(=O)c1ncccc1C2=O [Compound 41]
1 to 12	12 to 37	CCOC(=O)c1c(C)oc2c1C(=O)c1ncccc1C2=O [Compound 2, Ethyl 2-methyl-4,9-dioxo-4,9-dihydrofuro[2,3-g]quinoline-3-carboxylate]
> 111		COc1ccc(NC(=O)c2c(C)oc3c2C(=O)c2ncccc2C3=O)cc1 [Compound 19]
12 to 37	1 to 12	COC(=O)c1sccc1OC(=O)c1c(C)oc2c1C(=O)c1ncccc1C2=O [Compound 62]
> 111		Cc1oc2c(c1C(=O)Nc1cccc(O)c1)C(=O)c1ncccc1C2=O [Compound 21]
12 to 37	1 to 12	Cc1oc2c(c1C(=O)OCC(O)CO)C(=O)c1ncccc1C2=O (centres unmarked) [Compound 15]
12 to 37	1 to 12	Cc1oc2c(c1C(=O)Oc1cccc(Cl)c1)C(=O)c1ncccc1C2=O [Compound 23]
37 to 111	37 to 111	Cc1oc2c(c1C(=O)O)C(=O)c1ncccc1C2=O [Compound 7, 2-methyl-4,9-dioxo-4,9-dihydrofuro[2,3-g]quinoline-3-carboxylic acid]
12 to 37	1 to 12	Cc1oc2c(c1C(=O)OCCO)C(=O)c1ncccc1C2=O [Compound 10, 2-hydroxyethyl-2-methyl-4,9-dioxo-4,9-dihydrofuro[2,3-g]quinoline-3-carboxylate]
1 to 12	12 to 37	Cc1oc2c(c1C(=O)Oc1ccccc1Cl)C(=O)c1ncccc1C2=O [Compound 24]
1 to 12	12 to 37	Cc1oc2c(c1C(=O)OC[C@@H](O)CO)C(=O)c1ncccc1C2=O [Compound 37]
12 to 37	1 to 12	Cc1oc2c(c1C(=O)OCCCO)C(=O)c1ncccc1C2=O [Compound 11]
37 to 111	37 to 111	CC(=O)c1c(C)oc2c1C(=O)c1ncccc1C2=O [Compound 9, 3-acetyl-2-methylfuro[2,3-g]quinoline-4,9-dione]
37 to 111	12 to 37	C#Cc1cccc(OC(=O)c2c(C)oc3c2C(=O)c2ncccc2C3=O)c1 [Compound 32]
> 111		CCNC(=O)c1c(C)oc2c1C(=O)c1ncccc1C2=O [Compound 20]
1 to 12		Cc1oc2c(c1C(=O)Oc1ccc(N)cc1)C(=O)c1ncccc1C2=O [Compound 70]
> 111		Cc1oc2c(c1C(=O)Nc1ccccc1O)C(=O)c1ncccc1C2=O [Compound 18]
